Our source for the fold resistance values is patent publication US8969357B2, “Methods for treating HCV” (AbbVie Inc., priority 2011, dated 2015).

The subject of one experiment is 1a-H77 replicons. The experiment is described as follows: Predominant resistant variants selected in genotype 1a replicons. The experiment is classed as cell-based, HCV. As for the experimental part: (§1) Predominant resistant variants selected by Compound 1, 2, or 4 in genotype 1 replicons were also determined. For Compound 1, the predominant resistance variants in 1a-H77 replicons include R155K, D168A and D168V with fold resistance of 26, 48 and 128, respectively; and the predominant resistance variants in 1b-Con1 replicons include R155K, A156T and D168V with fold resistance of 48, 9 and 190, respectively. For Compound 2, the predominant resistance variants in 1a-H77 replicons include C316Y, M414T, Y448C and S556G with fold resistance of 1600, 36, 980 and 15, respectively; and the predominant resistance variants in 1b-Con1 replicons include C316Y, M414T and D559G with fold resistance of 1400, 26 and 100, respectively. For Compound 4, the predominant resistance variants in 1a-H77 replicons include M28T, M28V, Q30R, Y93C and Y93H with fold resistance of 9000, 60, 800, 1700 and 41000, respectively; and the predominant resistance variants in 1b-Con1 replicons include Y93H with fold resistance of 55.

The next experiment has as its system 1b-Con1 replicons. In words: Predominant resistant variants selected in genotype 1b replicons. The experiment is classed as cell-based, HCV. The protocol: as §1

Consider `COc1c(-c2ccc3cc(NS(C)(=O)=O)ccc3c2)cc(-n2ccc(=O)[nH]c2=O)cc1C(C)(C)C` [Compound 2, N-(6-(3-tert-butyl-5-(2,4-dioxo-3,4-dihydropyrimidin-1(2H)-yl)-2-methoxyphenyl)naphthalen-2-yl)methanesulfonamide], for which the fold resistance in the experiment on 1a-H77 replicons (variant C316Y) was 1600 fold; in the experiment on 1a-H77 replicons (variant M414T), 36 fold; in the experiment on 1a-H77 replicons (variant S556G), 15 fold; with 1a-H77 replicons (variant Y448C) it was 980 fold; in the experiment with 1b-Con1 replicons (variant C316Y), 1400 fold; in the experiment with 1b-Con1 replicons (variant D559G), 100 fold. Further, the fold resistance in the experiment on 1b-Con1 replicons (variant M414T) came out at 26 fold.

As to `COC(=O)N[C@H](C(=O)N1CCC[C@H]1C(=O)Nc1ccc([C@@H]2CC[C@@H](c3ccc(NC(=O)[C@@H]4CCCN4C(=O)[C@@H](NC(=O)OC)C(C)C)cc3)N2c2ccc(C(C)(C)C)cc2)cc1)C(C)C` [Compound 4, dimethyl (2S,2′S)-1,1′-((2S,2′S)-2,2′-(4,4′-(2S,5S)-1-(4-tert-butylphenyl)pyrrolidine-2,5,diyl)bis(4,1-phenylene))bis(azanediyl)bis(oxomethylene)bis(pyrrolidine-2,1-diyl)bis(3-methyl-1-oxobutane-2,1-diyl)dicarbamate], the fold resistance in the experiment with 1a-H77 replicons (variant M28T) is recorded as 9000 fold; in the experiment on 1a-H77 replicons (variant M28V), 60 fold; in the experiment on 1a-H77 replicons (variant Q30R) it was 800 fold; in the experiment on 1a-H77 replicons (variant Y93C) it was 1700 fold; in the experiment with 1a-H77 replicons (variant Y93H), 41000 fold; with 1b-Con1 replicons (variant Y93H), 55 fold.

On to `Cc1cnc(C(=O)N[C@H]2CCCCC/C=C\[C@@H]3C[C@@]3(C(=O)NS(=O)(=O)C3CC3)NC(=O)[C@@H]3C[C@@H](Oc4nc5ccccc5c5ccccc45)CN3C2=O)cn1` [Compound 1, (2R,6S,13aS,14aR,16aS,Z)—N-(cyclopropylsulfonyl)-6-(5-methylpyrazine-2-carboxamido)-5,16-dioxo-2-(phenanthridin-6-yloxy)-1,2,3,5,6,7,8,9,10,11,13a,14,14a,15,16,16a-hexadecahydrocyclopropa[e]pyrrolo[1,2-a][1,4]diazacyclopentadecine-14a-carboxamide], for which the fold resistance was determined as 48 fold in the experiment on 1a-H77 replicons (variant D168A); 128 fold in the experiment on 1a-H77 replicons (variant D168V); 26 fold in the experiment on 1a-H77 replicons (variant R155K); 9 fold in the experiment on 1b-Con1 replicons (variant A156T); 190 fold in the experiment with 1b-Con1 replicons (variant D168V); 48 fold in the experiment with 1b-Con1 replicons (variant R155K).
